Here are results for 5 molecules from ChEMBL document CHEMBL1142525, “Molecular probes for imaging myelinated white matter in CNS” (J Med Chem, 2008).

Active and inactive are the calls of the source. No cut-off for these calls is given here.

Series [1] in a line: Partition coefficient, log P in 1-octanol/phosphate buffer at pH 7.40. Type of series: physicochemical. The note with it: pH 7.4.
The subject of series [2] is Brain. Kind of series: Drug uptake in Swiss Webster mouse brain at 0.185 MBq, iv after 120 mins. Type of series: ADME, organism-based. The note with it: in vivo, 2 h.
In series [3] the test system is Brain. Kind of series: Drug uptake in Swiss Webster mouse brain at 0.185 MBq, iv after 30 mins. Type of series: ADME, organism-based. The note with it: in vivo, 0.5 h.
Series [4] concerns Brain. In words: Drug uptake in Swiss Webster mouse brain at 0.185 MBq, iv after 60 mins. The note with it: in vivo, 1 h. Type of series: ADME, organism-based.
Series [5] is described as follows: Displacement of [3H]BMB from Sprague-Dawley rat brain myelin fractions. Type of series: tissue-based. In general terms: Displacement assays read how much labelled ligand stays bound in the presence of the test substance.
For a further series, the species on record is Rattus norvegicus. Kind of series: Binding affinity to Sprague-Dawley rat brain myelin fractions at 12.5 uM after 1 hr by UV spectrophotometry.

Broadly, the logD is the decadic logarithm of the distribution of all forms, ionised or not, between an organic phase and buffer at a given pH. Read a low logD as a more hydrophilic compound. The term Ki denotes the dissociation constant of the complex between target and ligand, obtained from inhibition or displacement. A higher Ki goes with lower affinity.

As to `Nc1ccc(/C=C/c2ccc([125I])cc2)cc1`, the logD in series [1] amounted to 2.5. Also, the Drug uptake with Brain [2] was 1.12 % ID/g; with Brain [3] it was 2.65 % ID/g; with Brain [4], 2.05 % ID/g.
For the molecule `Nc1ccc(/C=C/c2ccc(I)cc2)cc1`, the inhibition constant Ki in series [5] is 494 nM.
On the same count and under the same terms, the value for `Nc1ccc(/C=C/c2ccc(N)cc2)cc1` was 370 nM.
For `CN(C)c1ccc(/C=C/c2ccc(N)cc2)cc1`, in series [5], the affinity, expressed as Ki, was 119 nM. For the same molecule, in the series listed under Rattus norvegicus, the result was Active.
Taken in the same sequence, the figures for `CNc1ccc(/C=C/c2ccc(N)cc2)cc1` were 126 nM and “Active”.
